What was measured:
Ishikawa = assay: Inhibition of cell proliferation in human Ishikawa cells incubated for 48 hrs by CCK-8 assay
KLE = assay: Inhibition of cell proliferation in human KLE cells incubated for 48 hrs by CCK-8 assay
CYP2D6 = CYP2D6 (Homo sapiens, UniProt P10635); assay: Inhibition of CYP2D6 (unknown origin) at 10 uM relative to control; type: ADME
CYP3A4 = CYP3A4 (Homo sapiens, UniProt P08684); assay: Inhibition of CYP3A4 (unknown origin) at 10 uM relative to control; type: ADME
CYP1A2 = biological target: T1, CYP1A2 (Homo sapiens, UniProt P05177); assay: Inhibition of CYP1A2 (unknown origin) at 10 uM relative to control; type: ADME
T1 sequence (P05177 whole entry): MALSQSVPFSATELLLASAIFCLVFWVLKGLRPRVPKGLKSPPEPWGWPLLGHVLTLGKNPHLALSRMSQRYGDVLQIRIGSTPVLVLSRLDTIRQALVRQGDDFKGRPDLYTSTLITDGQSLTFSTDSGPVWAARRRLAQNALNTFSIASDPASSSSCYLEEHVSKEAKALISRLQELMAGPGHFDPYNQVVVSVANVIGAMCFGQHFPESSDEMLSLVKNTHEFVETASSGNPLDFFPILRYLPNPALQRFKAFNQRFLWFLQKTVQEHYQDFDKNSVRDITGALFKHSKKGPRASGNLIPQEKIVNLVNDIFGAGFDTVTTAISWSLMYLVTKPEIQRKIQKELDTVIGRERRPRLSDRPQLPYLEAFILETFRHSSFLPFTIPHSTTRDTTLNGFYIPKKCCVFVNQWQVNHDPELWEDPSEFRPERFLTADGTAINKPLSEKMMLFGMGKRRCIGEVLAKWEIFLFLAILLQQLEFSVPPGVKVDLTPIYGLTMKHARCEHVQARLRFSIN

CYP2C9 = CYP2C9 (Homo sapiens, UniProt P11712); assay: Inhibition of CYP2C9 (unknown origin) at 10 uM relative to control; type: ADME
CYP2C19 = CYP2C19 (Homo sapiens, UniProt P33261); assay: Inhibition of CYP2C19 (unknown origin) at 10 uM relative to control; type: ADME
in vitro [1] = settings: mouse, liver microsomes
Description: Metabolic stability in mouse liver microsomes assessed as half life

in vitro [2] = settings: mouse, liver microsomes; remark: listed apart in the source
in vitro [3] = settings: human, liver microsomes
in vitro [4] = settings: human, liver microsomes; remark: listed apart in the source
in vitro [5] = settings: plasma
Description: Protein binding in plasma (unknown origin)

CYP2D6, sequence (P10635 whole entry): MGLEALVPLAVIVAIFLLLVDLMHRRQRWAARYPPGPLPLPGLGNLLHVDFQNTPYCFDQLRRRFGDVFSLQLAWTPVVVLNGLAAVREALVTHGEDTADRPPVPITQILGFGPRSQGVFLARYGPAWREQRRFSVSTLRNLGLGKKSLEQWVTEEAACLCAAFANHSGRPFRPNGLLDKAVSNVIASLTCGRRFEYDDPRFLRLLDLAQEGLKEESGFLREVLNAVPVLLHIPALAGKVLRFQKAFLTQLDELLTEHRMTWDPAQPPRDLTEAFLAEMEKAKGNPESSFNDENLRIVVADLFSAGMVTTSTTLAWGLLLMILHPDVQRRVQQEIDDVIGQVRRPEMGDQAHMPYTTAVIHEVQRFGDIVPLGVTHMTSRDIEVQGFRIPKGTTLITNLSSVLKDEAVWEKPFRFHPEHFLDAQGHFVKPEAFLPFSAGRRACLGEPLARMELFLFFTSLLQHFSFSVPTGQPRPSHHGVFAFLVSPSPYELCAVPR
CYP2C19, sequence (P33261 whole entry): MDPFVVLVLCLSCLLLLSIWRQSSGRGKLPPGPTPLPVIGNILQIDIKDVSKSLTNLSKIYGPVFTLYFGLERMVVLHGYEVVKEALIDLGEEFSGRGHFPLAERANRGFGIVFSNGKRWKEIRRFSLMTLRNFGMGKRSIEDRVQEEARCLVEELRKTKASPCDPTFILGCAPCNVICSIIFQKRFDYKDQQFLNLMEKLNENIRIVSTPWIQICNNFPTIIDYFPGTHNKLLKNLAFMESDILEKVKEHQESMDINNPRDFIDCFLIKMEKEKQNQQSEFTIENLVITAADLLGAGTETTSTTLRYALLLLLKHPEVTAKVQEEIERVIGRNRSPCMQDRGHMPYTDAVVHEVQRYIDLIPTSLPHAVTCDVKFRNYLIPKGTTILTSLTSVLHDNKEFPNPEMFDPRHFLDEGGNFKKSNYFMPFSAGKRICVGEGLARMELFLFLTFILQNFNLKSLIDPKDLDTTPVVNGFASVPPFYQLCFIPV
CYP3A4, sequence (P08684 whole entry): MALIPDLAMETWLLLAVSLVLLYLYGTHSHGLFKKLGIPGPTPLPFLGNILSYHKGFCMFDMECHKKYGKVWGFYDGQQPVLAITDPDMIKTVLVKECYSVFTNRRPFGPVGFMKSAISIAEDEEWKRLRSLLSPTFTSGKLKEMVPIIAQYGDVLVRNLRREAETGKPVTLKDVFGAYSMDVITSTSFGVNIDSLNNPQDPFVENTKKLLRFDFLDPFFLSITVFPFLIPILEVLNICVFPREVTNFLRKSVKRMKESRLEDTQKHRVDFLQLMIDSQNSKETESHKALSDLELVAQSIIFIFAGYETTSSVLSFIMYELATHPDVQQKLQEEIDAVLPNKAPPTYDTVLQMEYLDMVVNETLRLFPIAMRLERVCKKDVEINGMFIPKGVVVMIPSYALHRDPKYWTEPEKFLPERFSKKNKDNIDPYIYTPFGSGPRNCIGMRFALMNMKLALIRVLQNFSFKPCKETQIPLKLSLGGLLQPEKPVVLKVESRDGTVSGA
CYP2C9, sequence (P11712 whole entry): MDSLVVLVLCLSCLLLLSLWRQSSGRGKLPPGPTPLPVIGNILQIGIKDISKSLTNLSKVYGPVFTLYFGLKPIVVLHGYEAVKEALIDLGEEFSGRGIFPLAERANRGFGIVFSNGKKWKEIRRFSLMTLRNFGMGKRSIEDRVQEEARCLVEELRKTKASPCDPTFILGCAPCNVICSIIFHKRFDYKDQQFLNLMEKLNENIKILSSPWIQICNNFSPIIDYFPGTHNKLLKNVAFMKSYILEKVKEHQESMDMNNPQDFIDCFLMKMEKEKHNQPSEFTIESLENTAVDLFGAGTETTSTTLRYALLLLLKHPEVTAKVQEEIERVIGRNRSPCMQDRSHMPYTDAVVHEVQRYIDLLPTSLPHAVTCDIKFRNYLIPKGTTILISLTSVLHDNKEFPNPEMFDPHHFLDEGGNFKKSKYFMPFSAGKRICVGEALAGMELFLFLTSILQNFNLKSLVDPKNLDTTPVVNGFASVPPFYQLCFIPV

| Structure (SMILES) | IC50 (Ishikawa) | IC50 (KLE) | other results |
| --- | --- | --- | --- |
| CC(C)(C)OC(=O)N1CC2(CCN(CCCCCN3c4cc(Cl)ccc4Sc4cccnc43)CC2)C1 | 11.4 µM |  |  |
| CC(C)(C)OC(=O)N1CC2(CN(CCCCCN3c4cc(Cl)ccc4Sc4cccnc43)C2)C1 | 12.2 µM |  |  |
| CC(C)(C)OC(=O)N1CCC2(CCN(CCCCCN3c4cc(Cl)ccc4Sc4cccnc43)C2)C1 (centres undefined) | 10.9 µM |  |  |
| CC(C)(C)OC(=O)N1CCC2(CCN(CCCCCN3c4cc(Cl)ccc4Sc4cccnc43)C2)CC1 | 11.6 µM |  |  |
| CC(C)(C)OC(=O)N1CCC2(CCN(CCCCN3c4cc(Cl)ccc4Sc4cccnc43)CC2)CC1 | 11.1 µM |  |  |
| CC(C)(C)OC(=O)N1CCC2(CCCN(CCCCCN3c4cc(Cl)ccc4Sc4cccnc43)C2)CC1 | 47.5 µM |  |  |
| CC(C)(C)OC(=O)N1CC2CC1CN2CCCCCN1c2cc(Cl)ccc2Sc2cccnc21 (centres undefined) | 21.3 µM |  |  |
| Clc1ccc2c(c1)N(CCCCCN1CCC3(CC1)CCN(Cc1ccccn1)CC3)c1ncccc1S2 | 12.8 µM |  |  |
| CC(C)(C)OC(=O)N1C[C@]2(C)C[C@@]1(C)CN2CCCCCN1c2cc(Cl)ccc2Sc2cccnc21 | 18.7 µM |  |  |
| CC(C)(C)OC(=O)N1CCC2(CC1)CN(CCCCCN1c3cc(Cl)ccc3Sc3cccnc31)CCO2 | 45.4 µM |  |  |
| CC(C)(C)OC(=O)N1CCC2(CCN(CCCCCN3c4cc(Cl)ccc4Sc4cccnc43)CC2)CC1 | 5.37 µM | 9.55 µM |  |
| C#CCN1CCC2(CC1)CCN(CCCCCN1c3cc(Cl)ccc3Sc3cccnc31)CC2 | 4.58 µM | 8.31 µM |  |
| Clc1ccc2c(c1)N(CCCCCN1CCC3(CCNCC3)CC1)c1ncccc1S2 | 1.7 µM | 2.88 µM |  |
| CC(C)(C)OC(=O)N1CCC2(CCN(CCCCCCN3c4cc(Cl)ccc4Sc4cccnc43)CC2)CC1 | 13.3 µM |  |  |
| COc1ccc2c(c1)N(CCCCCN1CCC3(CCN(C)CC3)CC1)c1ncccc1S2 |  |  | inhibition at 10 µM (CYP2D6): 14.8%; inhibition at 10 µM (CYP3A4): 20%; inhibition at 10 µM (CYP1A2): 0%; inhibition at 10 µM (CYP2C9): 7%; inhibition at 10 µM (CYP2C19): 7.5% |
| Clc1ccc(CN2CCC3(CCN(CCCCCN4c5cc(Cl)ccc5Sc5cccnc54)CC3)CC2)cc1 | 2.57 µM | 3.49 µM |  |
| CC(C)(C)OC(=O)N1CCC2(CCCN2CCCCCN2c3cc(Cl)ccc3Sc3cccnc32)CC1 | 13.3 µM |  |  |
| CC(C)(C)OC(=O)N1CCC2(CC1)CN(CCCCCN1c3cc(Cl)ccc3Sc3cccnc31)C2 | 8.23 µM |  |  |

| Structure (SMILES) | IC50 (Ishikawa) | IC50 (KLE) | other results |
| --- | --- | --- | --- |
| CC(C)(C)OC(=O)N1CCC2(CCN(CCCCCN3c4cc(Cl)ccc4Sc4cccnc43)CC2)C1 | 735 µM | 10.7 µM |  |
| CCCN1CCC2(CC1)CCN(CCCCCN1c3cc(Cl)ccc3Sc3cccnc31)CC2 | 1.41 µM | 3.53 µM |  |
| CC(C)(C)OC(=O)N1CCC2(CN(CCCCCN3c4cc(Cl)ccc4Sc4cccnc43)C2)C1 | 12.7 µM |  |  |
| O=C1CC2(CCN(Cc3ccccc3)CC2)CC(=O)N1CCCCCN1c2cc(Cl)ccc2Sc2cccnc21 | 27.5 µM |  |  |
| O=C1CC2(CCN(CCCCCN3c4cc(Cl)ccc4Sc4cccnc43)CC2)C(=O)N1 | 14.5 µM |  |  |
| CC(C)(C)OC(=O)N1CCC2(CC1)CCN2CCCCCN1c2cc(Cl)ccc2Sc2cccnc21 | 6.13 µM | 6.23 µM |  |
| CC(C)(C)OC(=O)N1CCC2(CCN(CCCCCN3c4ccccc4Sc4cccnc43)CC2)CC1 | 6 µM | 9.99 µM |  |
| CC(C)(C)OC(=O)N1CCCC12CCN(CCCCCN1c3cc(Cl)ccc3Sc3cccnc31)CC2 | 7.4 µM | 8.52 µM |  |
| CN1CCC2(CC1)CCN(CCCCCN1c3cc(OCc4ccccc4)ccc3Sc3cccnc31)CC2 | 14.6 µM |  |  |
| CN(C)CCCN1c2ccccc2Sc2ccc(Cl)cc21.Cl [CHLORPROMAZINE HYDROCHLORIDE] | 22 µM | 35 µM | half-life (in vitro [1]): 7.6 min; CLint scaled (in vitro [2]): 724 mL/min/kg; half-life (in vitro [3]): 23.8 min; CLint scaled (in vitro [4]): 52.3 mL/min/kg; fraction unbound (in vitro [5]): 0.0156 |
| COc1ccc2c(c1)N(CCCCCN1CCC3(CC1)CCN(C(=O)OC(C)(C)C)CC3)c1ncccc1S2 | 3.95 µM | 8.06 µM |  |
| CC(C)(C)OC(=O)N1CC2(CCN(CCCCCN3c4cc(Cl)ccc4Sc4cccnc43)C2)C1 | 14.4 µM |  |  |
| CC(=O)N1CCC2(CCN(CCCCCN3c4cc(Cl)ccc4Sc4cccnc43)CC2)CC1 | 10.4 µM |  |  |
| CCN(CC)c1ccc2c(c1)N(CCCCCN1CCC3(CCN(C)CC3)CC1)c1ncccc1S2 | 17.5 µM |  |  |
| CC(C)(C)OC(=O)N1C2CC1CN(CCCCCN1c3cc(Cl)ccc3Sc3cccnc31)C2 | 53.4 µM |  |  |
| CN1CCC2(CC1)CCN(CCCCCN1c3cc(Cl)ccc3Sc3cccnc31)CC2 | 1.21 µM | 3.17 µM |  |
| CC(C)(C)OC(=O)N1CCC2(CCN(CCCCCN3c4cc(C(F)(F)F)ccc4Sc4cccnc43)CC2)CC1 | 6.75 µM | 14.5 µM |  |
| Clc1ccc2c(c1)N(CCCCCN1CCC3(CC1)CCN(Cc1ccccc1)CC3)c1ncccc1S2 | 2.4 µM | 3.96 µM |  |
